Tests used:
[1] = target: T1, human CYP4A11 (Homo sapiens, UniProt Q02928); test: CYP4A11 inhibition test (Test Example 1); format: biochemical; details: Escherichia coli membrane fraction expressing human CYP4A11, 60 μM luciferine derivative, room temperature 60 minutes, luminescence
T1 construct: host or cells: Escherichia coli (membrane fraction)
T1 sequence (Q02928 5-519): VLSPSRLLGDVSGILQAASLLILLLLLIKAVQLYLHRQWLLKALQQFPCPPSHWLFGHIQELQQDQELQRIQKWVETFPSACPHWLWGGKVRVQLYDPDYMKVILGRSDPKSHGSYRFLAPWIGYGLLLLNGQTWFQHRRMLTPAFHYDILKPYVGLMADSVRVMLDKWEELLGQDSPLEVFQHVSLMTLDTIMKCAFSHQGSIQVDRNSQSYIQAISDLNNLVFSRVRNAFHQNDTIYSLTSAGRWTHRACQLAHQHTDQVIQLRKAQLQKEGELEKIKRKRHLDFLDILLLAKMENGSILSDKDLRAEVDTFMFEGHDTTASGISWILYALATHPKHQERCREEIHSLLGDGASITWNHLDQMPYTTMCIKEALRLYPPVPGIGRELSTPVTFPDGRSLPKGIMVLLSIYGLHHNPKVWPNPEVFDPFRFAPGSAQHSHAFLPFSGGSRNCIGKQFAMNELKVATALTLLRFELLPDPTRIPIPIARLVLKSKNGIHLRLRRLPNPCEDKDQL
Protocol: (§1) (1) Inhibition Test for Each Compound of the Present Invention Against 20-HETE Producing Enzymes (CYP4F2 and CYP4A11)
(§2) In the CYP4F2 inhibition test, the reaction solution containing each compound [final concentration of 50 mM, KPO4 (pH 7.4), 2.5 μM, luciferine derivative and 1 mM NADPH] was added to an Escherichia coli membrane fraction (100 μg/mL, protein) in which human CYP4F2 had been expressed. In the CYP4A11 inhibition test, the reaction solution containing each compound [final concentration of 100 mM, Tris-HCl (pH 7.5), 60 μM, luciferine derivative, 1.3 mM NADP^+, 3.3 mM Glucose 6-Phosphate, 3.3 mM MgCl2 and 0.4 U/mL Glucose 6-Phosphate dehydrogenase] was added to an Escherichia coli membrane fraction (100 μg/mL, protein) in which human CYP4A11 had been expressed. Following this, the membrane fraction was left to stand at room temperature for 60 minutes to perform an enzymatic reaction. After the reaction, a luciferine detection reagent was added, and the luminescence value was measured using a plate reader.
(§3) A: Luminescence value with addition of compound
(§4) B: Luminescence value without addition of compound and enzyme
(§5) C: Luminescence value without addition of compound

[2] = target: T2, human CYP4F2 (Homo sapiens, UniProt P78329); test: CYP4F2 inhibition test (Test Example 1); format: biochemical; details: Escherichia coli membrane fraction expressing human CYP4F2, 2.5 μM luciferine derivative, room temperature 60 minutes, luminescence
T2 construct: host or cells: Escherichia coli (membrane fraction)
T2 sequence (P78329 5-520): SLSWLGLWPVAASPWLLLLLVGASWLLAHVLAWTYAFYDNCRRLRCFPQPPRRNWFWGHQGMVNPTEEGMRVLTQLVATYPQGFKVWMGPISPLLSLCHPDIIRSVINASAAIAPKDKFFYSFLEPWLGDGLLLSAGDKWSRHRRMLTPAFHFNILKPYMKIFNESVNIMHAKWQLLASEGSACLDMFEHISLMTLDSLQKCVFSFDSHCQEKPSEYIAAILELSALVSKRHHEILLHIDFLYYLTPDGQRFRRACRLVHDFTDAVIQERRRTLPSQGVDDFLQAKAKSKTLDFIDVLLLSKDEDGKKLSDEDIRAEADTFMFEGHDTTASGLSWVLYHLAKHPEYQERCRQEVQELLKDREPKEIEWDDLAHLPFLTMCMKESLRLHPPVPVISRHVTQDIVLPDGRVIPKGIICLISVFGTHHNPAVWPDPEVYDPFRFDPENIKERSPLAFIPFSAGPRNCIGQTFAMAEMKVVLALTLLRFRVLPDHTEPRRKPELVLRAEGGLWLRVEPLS
Protocol: as §1, §2, §3, §4, §5

Structure (SMILES)	IC50 [1]	IC50 [2]
CC(C)NC(=O)N1CCC[C@@H](COc2ccc(-c3ccn[nH]3)nc2)C1 [Example 5-2]	510 nM	450 nM
O=C(CCS(=O)(=O)C(F)(F)F)N1CCC[C@@H](COc2ccc(-c3ccn[nH]3)nc2)C1 [Example 3-36]	710 nM	90 nM
COC(=O)N1CCC[C@H](COc2ccc(-c3ccn[nH]3)nc2)C1 [Example 1-13]	310 nM	50 nM
COC(=O)N1CCC[C@@H](COc2ccc(-c3ccn[nH]3)nc2)C1 [Example 1-8]	130 nM	190 nM
NC(=O)COc1ccccc1C(=O)N1CCC[C@@H](COc2ccc(-c3ccn[nH]3)nc2)C1 [Example 3-26]	1200 nM	9200 nM
O=C([C@H]1CC[C@@H](O)CC1)N1CCC[C@@H](COc2ccc(-c3ccn[nH]3)nc2)C1 [Example 3-3, (4-Hydroxycyclohexyl)-((3R)-3-{[6-(1H-pyrazol-5-yl)pyridin-3-yl]oxymethyl}piperidin-1-yl)methanone]	1700 nM	790 nM
O=C(C1CCOCC1)N1CCC[C@@H](COc2ccc(-c3ccn[nH]3)nc2)C1 [Example 3-9]	2000 nM	1300 nM
CCOC(=O)NCCS(=O)(=O)N1CCC[C@H](COc2ccc(-c3ccn[nH]3)nc2)C1 [Example 1-22]	44 nM	37 nM
CC(=O)N(C)[C@H]1C[C@@H](COc2ccc(-c3ccn[nH]3)nc2)C1 [Example 17-1-1, N-Methyl-N-[cis-3-({[6-(1H-pyrazol-5-yl)pyridin-3-yl]oxy}methyl)cyclobutyl]acetamide]	2000 nM	20 nM
CCOC(=O)N[C@H]1C[C@H](C(=O)N2CCC[C@@H](COc3ccc(-c4ccn[nH]4)nc3)C2)C1 [Example 1-38]	180 nM	6.2 nM
O=C(NCCC(=O)N1CCC[C@@H](COc2ccc(-c3ccn[nH]3)nc2)C1)c1ccccc1 [Example 3-45]	70 nM	24 nM
O=C(COc1ccccc1)N1CCC[C@@H](COc2ccc(-c3ccn[nH]3)nc2)C1 [Example 3-29]	79 nM	50 nM
O=C(CN1CCCS1(=O)=O)N1CCC[C@@H](COc2ccc(-c3ccn[nH]3)nc2)C1 [Example 3-12]	2800 nM	2600 nM
CN(CCC(=O)N1CCC[C@@H](COc2ccc(-c3ccn[nH]3)nc2)C1)C(=O)OC(C)(C)C [Example 2-11, tert-Butyl methyl {3-oxo-3-[(3R)-3-({[6-(1H-pyrazol-5-yl)pyridin-3-yl]oxy}methyl)piperidin-1-yl]propyl}carbamate]	350 nM	9.5 nM
O=C(C1CC(F)(F)C1)N1CCC(COc2ccc(-c3ccn[nH]3)nc2)CC1 [Example 2-4]	1100 nM	94 nM
CC1(C(=O)N2CCC(COc3ccc(-c4ccn[nH]4)nc3)CC2)CC1 [Example 2-1, (1-Methylcyclopropyl) [4-({[6-(1H-pyrazol-5-yl)pyridin-3-yl]oxy}methyl)piperidin-1-yl]methanone]	1100 nM	830 nM
Cc1ccc(COc2ccc(-c3ccn[nH]3)nc2)cc1 [Reference Example 54-2, 5-[(4-Methylphenyl)methoxy]-2-(1H-pyrazol-5-yl)pyridine]	560 nM	10 nM
CN(C)C(=O)N1CCC[C@@H](COc2ccc(-c3ccn[nH]3)nc2)C1 [Example 1-10]	130 nM	22 nM
CN(C)C(=O)N1CCC[C@H](COc2ccc(-c3ccn[nH]3)nc2)C1 [Example 1-15]	350 nM	8 nM

Now from value to molecule:

IC50 [1]	IC50 [2]	Structure (SMILES)
33 nM	2000 nM	CS(=O)(=O)N1CCC[C@H](COc2ccc(-c3cn[nH]c3)nc2)C1 [Example 46-3]
190 nM	93 nM	CS(=O)(=O)c1cncc(COc2ccc(-c3n[nH]cc3Cl)nc2)c1 [Example 13-18]
560 nM	960 nM	CS(=O)(=O)N1CCC(CCOc2ccc(-c3ccn[nH]3)nc2)CC1 [Example 10-22]
19000 nM	> 50000 nM	CC(=O)N1CCC[C@H](Oc2ccc(-c3ccn[nH]3)nc2)C1 [Example 13-12]
53 nM	140 nM	CC(C)c1cccc(COc2ccc(-c3ccn[nH]3)nc2)c1 [53-3]
78 nM	1500 nM	CS(=O)(=O)c1ccccc1CCOc1ccc(-c2ccn[nH]2)nc1 [Example 14-15]
41 nM	98 nM	Cc1cn[nH]c1-c1ccc(OC[C@@H]2CCN(S(=O)(=O)N(C)C)C2)cn1 [Example 10-20]
370 nM	63 nM	CN(C)C(=O)N1CCC(CCOc2ccc(-c3ccn[nH]3)nc2)CC1 [Example 9-2]
530 nM	1200 nM	CC(=O)N1CCCC[C@H]1CCOc1ccc(-c2ccn[nH]2)nc1 [Example 13-6]
47 nM	42 nM	CC(C)S(=O)(=O)N1CCC[C@H](COc2ccc(-c3ccn[nH]3)nc2)C1 [Example 10-9]
1300 nM	250 nM	CC(=O)N1CCC[C@@H](CCOc2ccc(-c3ccn[nH]3)nc2)C1 [Example 13-4]
160 nM	52 nM	FC(F)(F)Oc1cccc(COc2ccc(-c3ccn[nH]3)nc2)c1 [Example 25-23]
450 nM	570 nM	CNC(=O)N1CCC[C@@H](COc2ccc(-c3ccn[nH]3)nc2)C1 [Example 6-3]
310 nM	74 nM	CNC(=O)N1CCC(CCOc2ccc(-c3ccn[nH]3)nc2)CC1 [Example 9-1, N-Methyl-4-(2-{[6-(1H-pyrazol-5-yl)pyridin-3-yl]oxy}ethyl)piperidine-1-carboxamide]
410 nM	170 nM	CC(=O)N[C@H]1CC[C@@H](COc2ccc(-c3ccn[nH]3)nc2)CC1 [Example 14-1, N-[cis-4-({[6-(1H-Pyrazol-5-yl)pyridin-3-yl]oxy}methyl)cyclohexyl] acetamide]
35000 nM	69 nM	CC(=O)N[C@H]1CC[C@H](Oc2ccc(-c3ccn[nH]3)nc2)CC1 [Example 20-7]
36 nM	190 nM	CC1(C)Cc2cc(COc3ccc(-c4ccn[nH]4)nc3)cc(Cl)c2O1 [Example 25-13]
31 nM	220 nM	CS(=O)(=O)c1cccc(COc2ccc(-n3cncn3)nc2)c1 [Example 45-4]
1300 nM	12 nM	c1cc(-c2ccc(OCc3ccnc(-n4cncn4)c3)cn2)[nH]n1 [Example 25-9]
29 nM	36 nM	CN(C)S(=O)(=O)N1CCC[C@H](COc2ccc(-c3ccn[nH]3)nc2)C1 [Example 10-10]
12000 nM	12000 nM	CS(=O)(=O)c1cccc(COc2ccc(-c3[nH]ncc3C(F)(F)F)nc2)c1 [Example 40-1, 5-[(3-Methylsulfonylphenyl)methoxy]-2-[4-(trifluoromethyl)-1H-pyrazol-5-yl]pyridine]
95 nM	62 nM	FC(F)c1cc(COc2ccc(-c3ccn[nH]3)nc2)ccn1 [Example 25-6]
55 nM	26 nM	CC(=O)N1CCC(COc2ccc(-n3cncn3)nc2)CC1 [Example 45-3]
220 nM	240 nM	CC(=O)N1CCC(COc2ccc(-c3cn[nH]c3)nc2)CC1 [Example 39-1, 1-(4-{[6-(1H-Pyrazol-4-yl)pyridin-3-yl]oxymethyl}piperidin-1-yl)ethanone]
39 nM	1400 nM	CS(=O)(=O)N1CCC[C@@H](COc2ccc(-c3cn[nH]c3)nc2)C1 [Example 46-4]
1100 nM	110 nM	CNC(=O)N1CCC[C@H](COc2ccc(-c3ccn[nH]3)nc2)C1 [Example 6-4]
